pEC50, pIC50, pKi: −log10 of the molar value.
Columns and labels:
[1] = target: Metabotropic glutamate receptor 7 (Rattus norvegicus) (UniProt P35400); experiment: (§1) Positive allosteric modulation of rat mGlu7 receptor expressed in HEK293 cells co-expressing Gai5 assessed as potentiation of L-AP4-induced calcium mobilization preincubated for 140 secs and treated with EC20 L-AP4 for 125 secs and followed by subsequent addition of EC80 L-AP4 by Fluo-4-AM dye based fluorescence assay relative to maximal induction of L-AP4; assay type: functional, cell-based; details: filed as positive allosteric modulator, time 140.0 sec
Metabotropic glutamate receptor 7 (Rattus norvegicus), sequence (P35400 whole entry): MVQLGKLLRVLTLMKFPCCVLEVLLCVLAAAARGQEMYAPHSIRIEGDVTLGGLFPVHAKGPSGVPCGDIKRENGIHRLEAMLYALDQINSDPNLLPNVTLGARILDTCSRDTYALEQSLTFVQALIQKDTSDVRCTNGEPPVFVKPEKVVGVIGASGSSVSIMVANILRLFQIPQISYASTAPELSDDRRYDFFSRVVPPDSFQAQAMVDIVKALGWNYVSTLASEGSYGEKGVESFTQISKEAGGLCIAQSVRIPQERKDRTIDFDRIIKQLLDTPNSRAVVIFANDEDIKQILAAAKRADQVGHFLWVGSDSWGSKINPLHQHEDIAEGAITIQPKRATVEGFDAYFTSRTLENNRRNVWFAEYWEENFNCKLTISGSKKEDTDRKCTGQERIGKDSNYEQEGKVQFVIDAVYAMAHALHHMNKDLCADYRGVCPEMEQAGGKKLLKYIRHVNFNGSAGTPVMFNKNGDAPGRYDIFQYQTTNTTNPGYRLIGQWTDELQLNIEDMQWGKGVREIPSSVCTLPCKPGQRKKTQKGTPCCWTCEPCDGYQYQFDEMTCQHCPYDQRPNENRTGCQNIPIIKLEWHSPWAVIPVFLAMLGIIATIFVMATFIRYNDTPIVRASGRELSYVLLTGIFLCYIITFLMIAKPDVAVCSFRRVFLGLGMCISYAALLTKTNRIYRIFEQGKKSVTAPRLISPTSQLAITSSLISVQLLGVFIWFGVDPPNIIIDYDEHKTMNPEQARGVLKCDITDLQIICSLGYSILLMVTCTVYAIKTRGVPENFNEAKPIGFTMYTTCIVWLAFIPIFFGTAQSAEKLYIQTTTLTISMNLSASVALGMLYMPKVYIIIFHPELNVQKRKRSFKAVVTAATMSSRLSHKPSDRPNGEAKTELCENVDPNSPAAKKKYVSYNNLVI

[2] = target: T1, Metabotropic glutamate receptor 7 (Rattus norvegicus, UniProt P35400); experiment: as §1, with “assay” for “assay relative to maximal induction of L-AP4”; assay type: functional, cell-based; details: read-out: EC50
T1 sequence (P35400 whole entry): as above

[3] = target: Sodium-dependent dopamine transporter (Homo sapiens, UniProt Q01959); experiment: Displacement of […] from recombinant human Dopamine transporter after 120 mins by scintillation counting analysis; assay type: ADME
Sodium-dependent dopamine transporter, sequence (Q01959 whole entry): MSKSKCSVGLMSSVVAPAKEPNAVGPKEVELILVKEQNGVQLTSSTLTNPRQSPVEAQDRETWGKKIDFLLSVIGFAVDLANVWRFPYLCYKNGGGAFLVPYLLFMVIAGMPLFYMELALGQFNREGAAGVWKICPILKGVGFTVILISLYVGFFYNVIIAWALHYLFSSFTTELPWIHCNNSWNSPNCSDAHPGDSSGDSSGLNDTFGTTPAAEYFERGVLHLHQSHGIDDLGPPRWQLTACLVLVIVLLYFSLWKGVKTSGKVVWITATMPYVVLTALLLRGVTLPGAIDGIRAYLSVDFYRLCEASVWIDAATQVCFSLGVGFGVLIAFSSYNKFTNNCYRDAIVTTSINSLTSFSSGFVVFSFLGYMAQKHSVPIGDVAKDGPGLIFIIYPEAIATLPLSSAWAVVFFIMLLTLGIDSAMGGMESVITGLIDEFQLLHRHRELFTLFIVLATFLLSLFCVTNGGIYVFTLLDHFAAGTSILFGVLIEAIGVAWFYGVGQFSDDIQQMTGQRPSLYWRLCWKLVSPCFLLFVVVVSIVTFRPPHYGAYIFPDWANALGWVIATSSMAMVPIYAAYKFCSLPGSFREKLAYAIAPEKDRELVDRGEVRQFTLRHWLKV

[4] = Fraction unbound in mouse brain at 5 uM incubated for 6 hrs by equilibrium dialysis based LC-MS/MS analysis; assay type: ADME, tissue-based
[5] = Fraction unbound in rat brain at 5 uM incubated for 6 hrs by equilibrium dialysis based LC-MS/MS analysis; assay type: ADME, tissue-based
[6] = Hepatic intrinsic clearance in rat liver microsomes at 1 uM preincubated for 5 mins followed by NADPH addition and measured up to 45 mins by LC-MS/MS analysis; assay type: ADME, Microsome; details: read-out: CLH
[7] = target: T1, Metabotropic glutamate receptor 7; experiment: Positive allosteric modulation of rat mGlu7 expressed in HEK293 cells co- expressing GIRK assessed as potentiation of L-AP4-induced thallium flux incubated for 140 sec by FluoZin2-AM dye based fluorescence analysis; assay type: cell-based
[8] = target: Metabotropic glutamate receptor 7 (Rattus norvegicus) (UniProt P35400); experiment: Positive allosteric modulation of rat mGlu7 expressed in HEK293 cells co- expressing GIRK assessed as potentiation of L-AP4-induced thallium flux incubated for 140 sec by FluoZin2-AM dye based fluorescence analysis relative to maximal induction of L-AP4; assay type: cell-based; details: filed as positive allosteric modulator
[9] = Fraction unbound in mouse plasma at 5 uM incubated for 4 hrs by equilibrium dialysis based LC-MS/MS analysis; assay type: ADME, cell-free
[10] = Hepatic intrinsic clearance in mouse liver microsomes at 1 uM preincubated for 5 mins followed by NADPH addition and measured up to 45 mins by LC-MS/MS analysis; assay type: ADME, Microsome; details: read-out: CLH
[11] = Unbound plasma to brain permeability coefficient, Kp of the compound in Sprague-Dawley rat at 0.2 mg/kg, iv measured after 0.25 hrs by LC-MS/MS analysis; assay type: ADME, organism-based; details: read-out: K(p,uu,brain)
[12] = Fraction unbound in rat plasma at 5 uM incubated for 4 hrs by equilibrium dialysis based LC-MS/MS analysis; assay type: ADME, cell-free
[13] = Plasma to brain permeability coefficient, Kp of the compound in Sprague-Dawley rat at 0.2 mg/kg, iv measured after 0.25 hrs by LC-MS/MS analysis; assay type: ADME, organism-based

Activity [1] | pEC50 [2] | SMILES | other results
85% |  | N#Cc1cnc2c(OC3CCOC3)cccc2c1N1CCN(c2ccccc2F)CC1 (single isomer, unassigned; (+)) | 
22% | < 5.00 | N#Cc1cnc2c(N3CCCC3)cccc2c1N1CCN(c2ccccc2F)CC1 | 
90% | < 5.00 | N#Cc1cnc2c(O)cccc2c1N1CCN(c2ccccc2F)CC1 | 
67% | 5.74 | N#Cc1cnc2c(OC3CCC3)cccc2c1N1CCN(c2ccccc2F)CC1 | 
88% |  | N#Cc1cnc2c(OCC3CCOC3)cccc2c1N1CCN(c2ccccc2F)CC1 (racemic) | 
67% | 5.90 | CC(C)Oc1cccc2c(N3CCN(c4ccccc4F)CC3)c(C#N)cnc12 | 
22% | < 5.00 | N#Cc1cnc2c(N3CCC(F)(F)CC3)cccc2c1N1CCN(c2ccccc2F)CC1 | 
90% | < 5.00 | N#Cc1cnc2c(O)cc(F)cc2c1N1CCN(c2ccccc2F)CC1 | 
 | 5.96 | N#Cc1cnc2c(OC3CCOC3)cccc2c1N1CCN(c2ccccc2F)CC1 (single isomer, unassigned; (-)) | 
23% | < 5.00 | N#Cc1cnc2c(-n3cncn3)cccc2c1N1CCN(c2ccccc2F)CC1 | 
22% | < 5.00 | N#Cc1cnc2c(-n3cccn3)cccc2c1N1CCN(c2ccccc2F)CC1 | 
62% | 5.96 | COc1c(F)c(F)cc2c(N3CCN(c4ccccc4F)CC3)c(C#N)cnc12 | pIC50 [3]: 5.66
72% | 5.89 | N#Cc1cnc2c(N3CCOCC3)cccc2c1N1CCN(c2ccccc2F)CC1 | fraction unbound at 6 h, 5 µM [4]: 0.002; fraction unbound at 6 h, 5 µM [5]: 0.002; CLint scaled at 1 µM [6]: 58.6 mL/min/kg; pEC50 [7]: 6.15; Activity [8]: 29.5%; fraction unbound at 4 h, 5 µM [9]: 0.01; CLint scaled at 1 µM [10]: 76.2 mL/min/kg; Kp uu at 0.25 h [11]: 1.24; pKi [3]: < 5.00; fraction unbound at 4 h, 5 µM [12]: 0.01; Kp at 0.25 h [13]: 6.84
 | 5.72 | N#Cc1cnc2c(OCC3CCOC3)cccc2c1N1CCN(c2ccccc2F)CC1 (single isomer, unassigned; (+)) [listing 1 of 2 here] | 
68% | < 5.00 | N#Cc1cnc2c(OC(F)F)cccc2c1N1CCN(c2ccccc2F)CC1 | 
76% | 6.19 | N#Cc1cnc2c(OCC3CCOC3)cc(F)cc2c1N1CCN(c2ccccc2F)CC1 (stereo not drawn) | 
84% | 5.15 | CC1CN(c2cccc3c(N4CCN(c5ccccc5F)CC4)c(C#N)cnc23)CCO1 (stereo not drawn) | 
77% |  | N#Cc1cnc2c(OCC3CCOC3)cccc2c1N1CCN(c2ccccc2F)CC1 (single isomer, unassigned; (+)) [listing 2 of 2 here] | 

Reference: ChEMBL document CHEMBL4665820, “Discovery of VU6027459: A First-in-Class Selective and CNS Penetrant mGlu Positive Allosteric Modulator Tool Compound” (ACS Med Chem Lett, 2020)
